“Also recorded” adds a separate entry of the source.
Key:
physchem = format: physicochemical; conditions: buffer, pH 7.4
Description: The conjugation reaction of PMLA with PEG, TMZH, LLL and LOEt was followed by thin layer chromatography (TLC) on precoated silica gel 60 F254 aluminum sheets (Merck, Darmstadt, Germany) and visualization of spots by UV light and/or by ninhydrin staining. The concentration of free or conjugated TMZH was monitored by reading A328 and using known amounts of TMZ or TMZH standards. Size exclusion chromatography was performed on LACHROM ELITE, an analytical High Performance Liquid Chromatograph (HPLC) system with Diode Array Detector L 2455 (Hitachi, Pleasanton, Calif., USA), and Mw was measured using BioSep-SEC-S 3000 (300×7.80 mm) (Phenomenex, Torrance, Calif., USA) with 50 mM sodium phosphate buffer pH 6.8 and polystyrene sulfonates as molecular weight standards. Thiol residues attached to PMLA were assayed by the method of Ellman. Enzyme-linked immunosorbent assay (ELISA) was used to determine the functional activity of conjugated antibody using a Protein Detector ELISA Kit (KPL, Inc., Gaithersburg, Mass., USA). Human TfR ectodomain used as antigen was obtained from Protein Expression Center, California Institute of Technology, Pasadena, USA.
TMZ is a prodrug and undergoes spontaneous conversion to the active alkylating agent at neutral or alkaline pH. Half-lives were measured at physiological pH 7.4 in PBS and summarized in Table I. The decomposition of free and conjugated TMZH by hydrolytic ring opening (Chart 1) was a first order reaction for free TMZ or TMZH and conjugated TMZH (data not shown). […] Similar data have been reported for TMZ conjugated with small carbon chains (6). No detectable decomposition was observed during 24 h at pH 5.0 at RT.

MDA-MB-231 = assay: Cell viability (MTS); format: cell-based, human; conditions: MDA-MB-231, 24 h exposure, viability on day 7, untreated = 100%
Description: (§1) Primary glioma cell lines U87MG and T98G, and invasive breast carcinoma cell lines MDA-MB-231 and MDA-MB-468 were obtained from American Type Culture Collection (ATCC, Manassas, Va., USA) USA. U87MG and T98G cells were cultured in MEM supplemented with 10% fetal bovine serum, 1% MEM NEAA, 1 mM sodium pyruvate and 2 mM L-glutamine. For MDA-MB-231 and MDA-MB-468, Leibovitz's L-15 medium with 10% fetal bovine serum was used. Cells were seeded at 10^3 per well (0.1 ml) in 96-well flat-bottomed plates and incubated overnight at 37° C. in humid atmosphere with 5% CO2 (MDA-MB-231 and MDA-MB-468 were incubated without CO2). After exposure to synthesized conjugates for 24 h, medium was replaced every 48 h. Cell viability was measured on day 5 for T98G and day 7 for the rest of the cell lines using the CELLTITER 96 Aqueous One Solution Cell Proliferation Assay kit (Cat. No. PR-G3580; Promega, Madison, Wis., USA). Yellow [3-(4,5-dimethylthiazol-2-yl)-5-(3-carboxymethoxyphenyl)-2-(4-sulfophenyl-)-2H-tetrazolium, inner salt] (MTS) is bioreduced by cells into formazan that is soluble in the tissue culture medium. The absorbance reading at 490 nm from the 96-well plates is directly proportional to the number of living cells (32). The viability of the untreated cells was taken as 100%. The results shown are the means±standard deviation of three independent measurements. Data were analyzed by statistical software GRAPHPAD PRISM 3.0.

MDA-MB-468 = assay: Cell viability (MTS); format: cell-based, human; conditions: MDA-MB-468, 24 h exposure, viability on day 7, untreated = 100%
Description: as §1

T98G = assay: Cell viability (MTS); format: cell-based, human; conditions: 24 h exposure, viability on day 5, untreated = 100%
Description: as §1

U87MG = assay: Cell viability (MTS); format: cell-based, human
Description: as §1

| Half-life of TMZ (physchem) [h] | half-life (physchem) [h] | Compound | effect on cell viability (MDA-MB-231) | effect on cell viability (MDA-MB-468) | effect on cell viability (T98G) | effect on cell viability (U87MG; 24 h exposure, viability on day 7, untreated = 100%) | order of increasing potency on cell viability (U87MG; FIG. 6a) |
| --- | --- | --- | --- | --- | --- | --- | --- |
| 1.8 | 1.8 ± 0.1 | Cn1nnc2c(C(N)=O)ncn2c1=O [TMZ, temozolomide] | inactive; also recorded: did not change | inactive; also recorded: ineffective at all concentrations below 130 μM; also recorded: did not change | inactive; also recorded: did not change | stronger effect on U87MG cells than the nanoconjugates; also recorded: responded | P/PEG(2%)/LLL(40%)/TMZH(17%)/IgG(0.25%)<P/PEG(2%)/LLL(40%)/TMZH(17%)<P/PEG(2%)/LLL(40%)/TMZH(17%)/HuTfR mAb(0.25%)<TMZ |
| – | 1.98 ± 0.1 | Cn1nnc2c(C(=O)NN)ncn2c1=O [TMZH, temozolomide hydrazide] | – | – | – | – | – |
